Patent US11130781B2, “Antimicrobial peptides and their use” (UNIVERSITEIT UTRECHT HOLDING B.V., priority 2017, dated 2021)
Read-outs that look alike come from different tables or passages of the source. Where no end group is shown, it is not given here.

Columns and labels:
Format in all cases: cell-based
[1] = system: primary human nasal epithelial cells; experiment: Toxicity measurement (WST-1 conversion); design: Toxicity: key to the marks not given beside the values
Method: The cytotoxic effect of all peptides was determined as previously described (2) using primary human nasal epithelial cells, obtained by nasal brushing of healthy individuals.
Cells were grown to confluence in 96-well plates in Bronchial Epithelial Cell Growth Medium (BEPC, Lonza) at 37° C. and 5% CO2. Peptides were diluted in the same medium to a final concentration of 5 μM and applied to the washed (PBS, twice) cells and incubated for 3 hours or 24 hours at 37° C. After incubation, the medium was removed, cells were washed twice (PBS) and fresh BEPC containing 10% (v/v) cell proliferation reagent WST-1 (Roche) was added to each well.
Conversion of WST-1 is indicative for cell viability and reduced conversion by cells is a measure for cytotoxic effects exerted by peptides. After incubation for 30 minutes at 37° C. the absorbance of each well was measured at 450 nm and 650 nm (reference wavelength). Controls included cells exposed to peptide-free medium (set to 100% WST-1 conversion) and wells without cells (background). Results are based upon 5 individual experiments and defined as follows: “0”, no toxicity; “+”, weakly toxic; “++”, moderately toxic; “+++”, toxic; “++++”, very toxic.

Pseudomonas aeruginosa = conditions: 18 h
Method: (§1) Bacteria (2×10E6 CFU/ml) were suspended in MHB+0.9% NaCl and were mixed 1:1 (vol/vol) with peptides dissolved in the same medium in various concentrations (final conc. 0-10 μM) and added to Bioscreen C analyzer plates (Oy Growth Curves Ab Ltd., Helsinki, Finland) and incubated for 18 h at 37° C. while shaking (200 rpm) in a Bioscreen C analyzer (Oy Growth Curves Ab Ltd). The OD (600 nm) was measured every 15 min. Minimal Inhibitory Concentrations (MIC values) were assessed for each peptide.

Staphylococcus aureus = conditions: 18 h
Method: as §1

Molecule	Toxicity ([1]; peptide 5 μM, 3 hours or 24 hours, WST-1 conversion)	toxicity, in words ([1]; primary human nasal epithelial cells)	Bioscreen MIC values Pseudomonas aeruginosa (Pseudomonas aeruginosa) [µM]	Bioscreen MIC values Staphylococcus aureus (Staphylococcus aureus) [µM]	toxicity, in words [1]
CC[C@H](C)[C@H](NC(=O)[C@H](CCCCN)NC(=O)[C@H](CCC(=O)O)NC(=O)[C@H](CCCCN)NC(=O)[C@H](CO)NC(=O)[C@H](CCCCN)NC(=O)[C@H](CCCNC(=N)N)NC(=O)[C@H](Cc1ccccc1)NC(=O)[C@H](Cc1ccccc1)NC(=O)[C@H](CC(=O)O)NC(=O)CNC(=O)[C@H](CC(C)C)NC(=O)[C@@H](N)CC(C)C)C(=O)NCC(=O)N[C@@H](CCCCN)C(=O)N[C@@H](CCC(=O)O)C(=O)N[C@@H](Cc1ccccc1)C(=O)N[C@@H](CCCCN)C(=O)N[C@@H](CCCNC(=N)N)C(=O)N[C@H](C(=O)N[C@H](C(=O)N[C@@H](CCC(N)=O)C(=O)N[C@@H](CCCNC(=N)N)C(=O)N[C@H](C(=O)N[C@@H](CCCCN)C(=O)N[C@@H](CC(=O)O)C(=O)N[C@@H](Cc1ccccc1)C(=O)N[C@@H](CC(C)C)C(=O)N[C@@H](CCCNC(=N)N)C(=O)N[C@@H](CC(N)=O)C(=O)N[C@@H](CC(C)C)C(=O)N[C@H](C(=O)N1CCC[C@H]1C(=O)N[C@@H](CCCNC(=N)N)C(=O)N[C@H](C(=O)N[C@@H](CCC(=O)O)C(=O)N[C@@H](CO)C(N)=O)[C@@H](C)O)C(C)C)[C@@H](C)CC)C(C)C)[C@@H](C)CC [SEQ ID NO: 1]	++	more toxic			
APKAMRRWVQRWIRRWRPKVFQVTGSSA-NH2 [SEQ ID NO: 22]			10	>10	
APKAMRRWVQRWIRRWRPKVLLHYPSQKF-NH2 [SEQ ID NO: 23]			2.5	>10	
APKAMRRWVQRWIRRWRPKVLQKKGI-NH2 [SEQ ID NO: 18]			5	>10	
APKAMRRWVQRWIRRWRPKVLQKNNYL-NH2 [SEQ ID NO: 21]			2.5	>10	
APKAMRRWVQRWIRRWRPLQKKGI-NH2 [SEQ ID NO: 20]			10	>10	
APKAMRRWVQRWIRRWRPRLQKKGI-NH2 [SEQ ID NO: 19]			5	>10	
APKAMRRWVQRWIRRWRPRV-NH2 [SEQ ID NO: 17]			5	>10	
APKAMRWVQRWIRRWRPKLQKKGI-NH2 [SEQ ID NO: 26]			10	>10	
APKAMWVQRWIRRWRPLQKKGI-NH2 [SEQ ID NO: 27]			>10	>10	weakly toxic
RFGRFLRKIRRFRPKVTITIQGSARF-NH2 [SEQ ID NO: 2, reference compound]			1.25	1.25	extremely toxic
RRWVQRWIRRWRKVAAARRWVQRWIRRWRPKV-NH2 [SEQ ID NO: 13]			1.25	1.25	
RRWVQRWIRRWRKWV-NH2 [SEQ ID NO: 7, RRWVQRWIRRWRKWV]			1.25	2.5	
RRWVQRWIRRWRPK-NH2 [SEQ ID NO: 8, RRWVQRWIRRWRPK]			10	>10	
RRWVQRWIRRWRPKLQKKGI-NH2 [SEQ ID NO: 16]			10	>10	
RRWVQRWIRRWRPKRIVQRIKDFLRNLV-NH2 [SEQ ID NO: 11]			1.25	2.5	
RRWVQRWIRRWRPKVAAARRWV-NH2 [SEQ ID NO: 10]			1.25	10	
RRWVQRWIRRWRPKVAAARRWVQRWIRRWRPKV-NH2 [SEQ ID NO: 12]			1.25	1.25	
RRWVQRWIRRWRPKVLQKKGI-NH2 [SEQ ID NO: 14]			10	>10	
RRWVQRWIRRWRPKW-NH2 [SEQ ID NO: 9, RRWVQRWIRRWRPKW]			5	10	
RRWVQRWIRRWRPWV-NH2 [SEQ ID NO: 6, RRWVQRWIRRWRPWV]			2.5	10	
RRWVRRWIRRWRPKV-NH2 [SEQ ID NO: 25, RRWVRRWIRRWRPKV]			5	>10	
